According to article PMC11943723, “Synthesis and Biological Activity of Glycosyl Thiazolyl Disulfides Based on Thiacarpine, an Analogue of the Cytotoxic Alkaloid Polycarpine from the Ascidian Polycarpa aurata” (Marine Drugs, 2025):
≈ marks a conversion by molar mass, not a printed value. Structures can show the parent of a compound that is named as a salt.

Legend:
[1] = system: Candida albicans (KMM 455); assay: Antimicrobial activity, inhibition of microbial growth (optical density); type: cell-based; settings: 18 h, OD 620 nm; for MIC50: Candida albicans, KMM455, read-out: Inhibition of Microbial Growth MIC50, C. albicans
Description: (§1) The antimicrobial activity of the compounds was determined against Gram-positive bacteria Staphylococcus aureus (ATCC 21027), Gram-negative bacteria Escherichia coli (VKPM B-7935), and yeast-like fungi Candida albicans (KMM 455) (all test strains were obtained from the Collection of Marine Microorganisms KMM PIBOC FEB RAS) in liquid nutrient media. Test cultures of S. aureus, E. coli, and C. albicans were grown in Petri dishes on a solid nutrient medium (Mueller–Hinton broth with the addition of agar—16.0 g/L) at 37 °C for 24 h. The antimicrobial activity of the compounds was determined by the change in optical density and expressed as the percentage of bacterial inhibition at different concentrations of substances added to the well of the microorganism suspension, compared to the control. The compounds were dissolved in dimethyl sulfoxide (DMSO) at a concentration of 10 mM and stored at −20 °C. Before the experiment, the solution of substances in DMSO was diluted with PBS at a concentration of 0.5–100.0 µM and added to the wells so that the concentration of DMSO in the culture medium was less than 1%. Antimicrobial activity was determined in 96-well microplates in a liquid Mueller–Hinton nutrient medium. For S. aureus, E. coli, and C. albicans, a bacterial suspension of 10^6 CFU in 1 mL of the media was used, 90 μL was added to each well of the microplates and then incubated in a thermostatted shaker at 37 °C for 18 h. Inhibition of microorganism growth was assessed by measuring the optical density at 620 nm using a microplate reader (Thermo Fisher Scientific, Waltham, MA, USA) after preliminary shaking of the plates for 10 min. All experiments were performed in triplicate. Gentamicin (S. aureus and E. coli) and nitrofungin (C. albicans) were used as positive controls, and 1% DMSO in PBS was used as a negative control.

[2] = system: Escherichia coli (VKPM B-7935); assay: as above; type: cell-based; settings: Escherichia coli; 18 h, OD 620 nm; read-out: Inhibition of Microbial Growth MIC50, E. coli
Description: as §1

[3] = system: Staphylococcus aureus (ATCC 21027); assay: as above; type: cell-based; settings: Staphylococcus aureus, ATCC21027; 18 h, OD 620 nm; read-out: Inhibition of Microbial Growth MIC50, S. aureus
Description: as §1

[4] = system: HeLa (cervical cancer); assay: MTT cell viability assay, HeLa; type: cell-based, human; settings: Homo sapiens, HeLa, 24 h, 24 h incubation, read-out: Cytotoxicity EC50, HeLa
Excerpt: (§2) Human erythrocytes were purchased from the blood transfusion station Vladivostok. Human breast cancer cell lines MCF-7^HTB−22, and MDA-MB-231^CRM-HTB−26, liver hepatocellular carcinoma Hep G2^HB−8065, prostate adenocarcinoma PC-3^CRL−1435, cervical adenocarcinoma HeLa^CRM-CCL−2, and normal bronchial epithelial cells BEAS-2B ^CRL−3588 were received from ATCC (Manassas, VA, USA).
(§3) DMEM medium (Biolot, Russia) with 1% penicillin/streptomycin and 10% fetal bovine serum (FBS) (Biolot, Russia) was used for cultivation of Hep G2, PC-3, HeLa, and Beas-2b. MEM medium (Biolot, Russia) with 1% penicillin/streptomycin sulfate (Biolot, Russia) and FBS (Biolot, Russia) to a final concentration of 10% for MCF-7 and MDA-MB-231 cells.
(§4) The effect of the studied compounds on the viability of human cancer and normal cells was determined using the MTT (3-[4,5-dimethylthiazol-2-yl]-2,5 diphenyl tetrazolium bromide) assay. Briefly, 6 × 10^3 cells per well were seeded into 96-well plates and incubated for 24 h for adhesion, followed by incubation for 24 h with different concentrations of the substances. After incubation, the medium containing the test substances was replaced with 100 µL of fresh medium. Then, 10 μL of MTT (Sigma-Aldrich, Madison, WI, USA) reagent (5 mg/mL MTT in PBS) was added into the cells and the plates for additional 4 h. Thereafter, 100 µL of SDS-HCl solution (1 g SDS/10 mL dH2O/17 µL 6N HCl) was added to each well and incubated for 18 h. The absorbance of the converted formazan dye was measured using a Multiskan FC microplate photometer (Thermo Scientific, Waltham, MA, USA) at a wavelength of 570 nm. All experiments were performed in triplicate. Cytotoxic activity was expressed as a percentage of the cell viability.

[5] = system: Hep G2 (hepatocellular carcinoma); assay: MTT cell viability assay, Hep G2; type: cell-based; settings: Homo sapiens, HepG2, 24 h incubation, read-out: Cytotoxicity EC50, Hep G2
Excerpt: as §2, §3, §4

[6] = system: MDA-MB-231 (triple-negative breast cancer); assay: MTT cell viability assay, MDA-MB-231; type: cell-based, human; settings: Homo sapiens, MDA-MB-231, 24 h, 24 h incubation, read-out: Cytotoxicity EC50, MDA-MB-231 (TNBC)
Excerpt: as §2, §3, §4

[7] = MTT cell viability assay, BEAS-2B normal cells; type: cell-based; settings: human, BEAS-2B normal bronchial epithelial cells, 24 h incubation, read-out: Cytotoxicity EC50, BEAS 2B
Excerpt: as §2, §3, §4

[8] = system: Candida albicans (KMM 455); assay: Inhibition of biofilm formation (MTT); type: cell-based; settings: 24 h
Description: Biofilm formation was performed according to the method described by Walencka et al., with minor modifications. The compounds were dissolved in dimethyl sulfoxide (DMSO) at a concentration of 10 mM and stored at −20 °C. Before the experiment, the solution of substances in DMSO was diluted with PBS at a concentration of 0.5–100.0 µM and added to the wells so that the concentration of DMSO in the culture medium was less than 1%. Biofilm formation was assessed in 96-well microplates in a liquid Mueller–Hinton nutrient medium. For S. aureus, E. coli, and C. albicans, a bacterial suspension of 10^6 CFU in 1 mL of medium was used, 90 μL was added to each well of the microplates and then incubated in a thermostatted shaker at 37 °C for 24 h. After incubation, the suspension of planktonic microorganisms was removed from the plate and washed with PBS. Next, 100 μL of PBS and 10 μL of MTT (3-(4,5-dimethylthiazol-2-yl)-2,5-diphenyltetrazolium bromide, MTT reagent, Sigma) stock solution (5 mg/mL) were added to the wells and incubated for 3 h at 37 °C. After incubation, all the solution was removed from the wells, 100 μL of DMSO was added, and the plate was shaken for 10 min until all formazan crystals had dissolved. The absorption was measured using a plate reader (Thermo Fisher Scientific, Waltham, MA, USA) at a wavelength of 570 nm. The activity of the substances was assessed by the change in optical density compared with that of the control. All experiments were performed in triplicate. Gentamicin (S. aureus and E. coli) and nitrofungin (C. albicans) were used as positive controls, and 1% DMSO in PBS was used as a negative control.

Nc1nc(-c2ccccc2)c(SSc2sc(N)nc2-c2ccccc2)s1 [Compound 1b, bis(2-amino-4-phenyl-5-thiazolyl)disulfide]
MIC50 [1]: 6.2 ± 0.6 µM (≈ 2.57 µg/mL)
MIC50 [2]: 13.9 ± 1.3 µM (≈ 5.76 µg/mL)
MIC50 [3]: 5.2 ± 0.5 µM (≈ 2.16 µg/mL)

Nc1nc(-c2ccc(Br)cc2)c(SSc2sc(N)nc2-c2ccc(Br)cc2)s1 [Compound 1c]
MIC50 [1]: 3.1 ± 0.4 µM (≈ 1.77 µg/mL)
MIC50 [2]: 15.7 ± 2.3 µM (≈ 8.99 µg/mL)
MIC50 [3]: 3.4 ± 0.4 µM (≈ 1.95 µg/mL)

Nc1nc(-c2ccc(Cl)cc2)c(SSc2sc(N)nc2-c2ccc(Cl)cc2)s1 [Compound 1d]
MIC50 [1]: 5 ± 0.4 µM (≈ 2.42 µg/mL)
MIC50 [2]: 30.9 ± 3 µM (≈ 14.9 µg/mL)
MIC50 [3]: 2.8 ± 0.2 µM (≈ 1.35 µg/mL)

Cc1ccc(-c2nc(N)sc2SSc2sc(N)nc2-c2ccc(C)cc2)cc1 [Compound 1e]
MIC50 [1]: 19.5 ± 2 µM (≈ 8.63 µg/mL)
MIC50 [2]: 33.9 ± 3.9 µM (≈ 15 µg/mL)
MIC50 [3]: 30.7 ± 2.1 µM (≈ 13.6 µg/mL)

COc1ccc(-c2nc(N)sc2SS[C@@H]2O[C@H](COC(C)=O)[C@@H](OC(C)=O)[C@H](OC(C)=O)[C@H]2OC(C)=O)cc1 [Compound 4a, 5-[(2,3,4,6-Tetra-O-acetyl-β-D-glucopyranosyl)disulfanyl]-2-amino-4-(4-methoxyphenyl) thiazole]
EC50 [4]: > 25 µM
EC50 [5]: > 25 µM
EC50 [6]: > 25 µM
EC50 at 24 h [7]: 19.9 µM
MIC50 [1]: 31.5 ± 3.1 µM (≈ 18.9 µg/mL)
MIC50 [2]: > 50 µM
MIC50 [3]: 32.5 ± 3.2 µM (≈ 19.5 µg/mL)

CC(=O)OC[C@H]1O[C@@H](SSc2sc(N)nc2-c2ccccc2)[C@H](OC(C)=O)[C@@H](OC(C)=O)[C@@H]1OC(C)=O [Compound 4b, 5-[(2,3,4,6-Tetra-O-acetyl-β-D-glucopyranosyl)disulfanyl]-2-amino-4-phenylthiazole]
EC50 [4]: > 25 µM
EC50 [5]: > 25 µM
EC50 [6]: 24.1 µM
EC50 at 24 h [7]: 19 µM
MIC50 [1]: 20.5 ± 2.7 µM (≈ 11.7 µg/mL)
MIC50 [2]: 31.2 ± 2 µM (≈ 17.8 µg/mL)
MIC50 [3]: 28.4 ± 3.1 µM (≈ 16.2 µg/mL)

CC(=O)O[C@@H]1[C@@H](OC(C)=O)[C@H](SSc2sc(N)nc2-c2ccccc2)OC[C@H]1OC(C)=O [Compound 4g, 5-[(2,3,4-Tri-O-acetyl-β-D-xylopyranosyl)disulfanyl]-2-amino-4-phenylthiazole]
EC50 [4]: > 25 µM
EC50 [5]: > 25 µM
EC50 [6]: > 25 µM
EC50 at 24 h [7]: > 25 µM
MIC50 [1]: 35.7 ± 3 µM (≈ 17.8 µg/mL)
MIC50 [2]: 42.1 ± 4.1 µM (≈ 21 µg/mL)
MIC50 [3]: 34 ± 1.6 µM (≈ 17 µg/mL)

CC(=O)O[C@@H]1[C@@H](OC(C)=O)[C@H](SSc2sc(N)nc2-c2ccc(C)cc2)OC[C@H]1OC(C)=O [Compound 4j, 5-[(2,3,4-Tri-O-acetyl-β-D-xylopyranosyl)disulfanyl]-2-amino-4-(p-tolyl)thiazole]
EC50 [4]: > 25 µM
EC50 [5]: > 25 µM
EC50 [6]: 23.7 µM
EC50 at 24 h [7]: > 25 µM
MIC50 [1]: 18.1 ± 1 µM (≈ 9.28 µg/mL)
MIC50 [2]: 25.5 ± 2 µM (≈ 13.1 µg/mL)
MIC50 [3]: 25 ± 1.4 µM (≈ 12.8 µg/mL)

COc1ccc(-c2nc(N)sc2SS[C@@H]2O[C@H](CO)[C@@H](O)[C@H](O)[C@H]2O)cc1 [Compound 5a, 5-[(β-D-glucopyranosyl)disulfanyl]-2-amino-4-(4-methoxyphenyl)thiazole hydrochloride]
EC50 [4]: > 25 µM
EC50 [5]: > 25 µM
EC50 [6]: 24.9 µM
EC50 at 24 h [7]: > 25 µM
MIC50 [1]: > 50 µM
MIC50 [2]: > 50 µM
MIC50 [3]: > 50 µM

Nc1nc(-c2ccccc2)c(SS[C@@H]2O[C@H](CO)[C@@H](O)[C@H](O)[C@H]2O)s1 [Compound 5b, 5-[(β-D-glucopyranosyl)disulfanyl]-2-amino-4-phenylthiazole hydrochloride]
EC50 [4]: > 25 µM
EC50 [5]: > 25 µM
EC50 [6]: > 25 µM
EC50 at 24 h [7]: 20.8 µM
MIC50 [1]: > 50 µM
MIC50 [2]: > 50 µM
MIC50 [3]: > 50 µM

Cc1ccc(-c2nc(N)sc2SS[C@@H]2O[C@H](CO)[C@@H](O)[C@H](O)[C@H]2O)cc1 [Compound 5e, 5-[(β-D-glucopyranosyl)disulfanyl]-2-amino-4-(p-tolyl)thiazole hydrochloride]
EC50 [4]: > 25 µM
EC50 [5]: > 25 µM
EC50 [6]: 23.5 µM
EC50 at 24 h [7]: 22.6 µM
MIC50 [1]: 38.5 ± 3.4 µM
MIC50 [2]: > 50 µM
MIC50 [3]: > 50 µM

COc1ccc(-c2nc(N)sc2SS[C@@H]2OC[C@@H](O)[C@H](O)[C@H]2O)cc1 [Compound 5f, 5-[(β-D-xylopyranosyl)disulfanyl]-2-amino-4-(4-methoxyphenyl)thiazole hydrochloride]
EC50 [4]: > 25 µM
EC50 [5]: > 25 µM
EC50 [6]: > 25 µM
EC50 at 24 h [7]: > 25 µM
MIC50 [1]: 36.2 ± 2.1 µM
MIC50 [2]: > 50 µM
MIC50 [3]: > 50 µM

Nc1nc(-c2ccccc2)c(SS[C@@H]2OC[C@@H](O)[C@H](O)[C@H]2O)s1 [Compound 5g, 5-[(β-D-xylopyranosyl)disulfanyl]-2-amino-4-phenylthiazole hydrochloride]
EC50 [4]: > 25 µM
EC50 [5]: > 25 µM
EC50 [6]: > 25 µM
EC50 at 24 h [7]: 22 µM
MIC50 [1]: 25.3 ± 1 µM
MIC50 [2]: 24.9 ± 2.2 µM
MIC50 [3]: > 50 µM

Nc1nc(-c2ccc(Cl)cc2)c(SS[C@@H]2OC[C@@H](O)[C@H](O)[C@H]2O)s1 [Compound 5i, 5-[(β-D-xylopyranosyl)disulfanyl]-2-amino-4-(4-clorophenyl)thiazole hydrochloride]
EC50 [4]: > 25 µM
EC50 [5]: > 25 µM
EC50 [6]: > 25 µM
EC50 at 24 h [7]: > 25 µM
MIC50 [1]: 13.8 ± 1.2 µM
MIC50 [2]: 21 ± 3 µM
MIC50 [3]: 13.7 ± 1.1 µM

CNC(C)C1CCC(N)C(OC2C(N)CC(N)C(OC3OCC(C)(O)C(NC)C3O)C2O)O1 (centres unmarked) [Gentamicin, reference compound]
MIC50 [2]: 5.1 ± 0.7 µM (≈ 2.44 µg/mL)
MIC50 [3]: 4.3 ± 0.8 µM (≈ 2.05 µg/mL)

O=[N+]([O-])c1ccc(O)c(Cl)c1 [Nitrofungin, reference compound]
Inhibition of Microbial Growth MIC50, C. albicans [1]: 4.1 ± 0.5 µM
Inhibition of Biofilm Formation MIC50, C. albicans [8]: 4.3 ± 0.4 µM
